# Data taken from US20150045387A1, “Bi-Aromatic And Tri-Aromatic Compounds As NADPH Oxidase 2 (Nox2) Inhibitors” (The University of Surrey, priority 2011, published 2015).
# Key:
# [1] = system: microvascular endothelial cells (SVEC4-10); test: basal and angiotensin II induced O2.- production, lucigenin-chemiluminescence; assay type: cell-based, mouse; details: LMH001 5 μM, 24 h in culture, cell homogenates, NADPH-dependent
# Description: FIG. 10 is a graph showing the effects of LMH001 in culture on basal and angiotensin II induced O2.^− production by microvascular endothelial cells (SVEC4-10). SVEC4-10 cells were cultured in medium alone (Basal) or in the presence of Angiotensin II (AngII, 200 nM) with or without LMH001 (5 μM) for 24 h. Cells were then harvested and cell homogenates were used for the measurement of NADPH-dependent O2.^− production by lucigenin-chemiluminescence. *P<0.05 (n=3 experiments). […]
# (§1) O2^− production by different cell types was measured using lucigenin (5 μM)-chemiluminescence. A microplate luminometer (LumiStar, BMG) was used, which allows the examination of 96 samples at the same time with kinetic reading facilities. […] Dark-adapted lucigenin (5 μM) was added into the well through an auto-dispenser located in the dark chamber just before reading. The light emission was recorded over a 60 minute period and expressed as arbitrary MLU measured by the illuminometer. Each experiment was performed in triplicate and the mean of 3 blank readings was subtracted from each corrected value for each reading. […]
# (§2) O2^− production was also studied using total cell homogenate (for the endothelial cells and the fibroblasts). […] Soluble protein concentration was determined using a kit from Bio-Rad Laboratories Ltd. (Hertfordshire, U.K.). […]
# [2] = system: human pulmonary endothelial cells (HPMEC); test: normal versus high glucose level-induced O2.- production, lucigenin-chemiluminescence; assay type: cell-based; details: LMH001 5 μM, 24 h in culture, NADPH 100 μM
# Description: FIG. 11 is a graph showing the effects of LMH001 in culture on normal glucose level versus high glucose level-induced O2.^− production by human pulmonary endothelial cells (HPMEC). HPMEC were cultured in the medium with normal level of glucose (5 mM) or with high level of glucose (40 mM) in the presence or absence of LMH001 (5 μM) for 24 h. Cells were harvested and cell homogenates were used for measuring NADPH (100 μM)-dependent O2.^− production by lucigenin-chemiluminescence (n=3 experiments).
# as §1, §2
# HepG2 cells = test: normal cell proliferation, MTS assay, HepG2; assay type: cell-based, human; details: HepG2, LMH001 up to 10 μM, 24 h
# Description: (§3) A) SVEC4-10 cells and HepG2 cells were cultured in the presence or absence of LHM001 (0-10 μM) for 24 h and tested for cell proliferation using a MTS assay kit. B) HL-60 cells were cultured in the presence or absence of LMH001 (0-10 μM), and cell proliferation was examined at 6, 12 and 24 h of culture.
# HepG2 is a human hepatocytic cell line (ATCC No. HB-8065) that was originally derived from liver tissue with a well differentiated hepatocellular carcinoma. HepG2 cells have been proven to be a suitable in vitro model system for the study of human hepatocytes, and the study of liver metabolism and toxicity. HepG2 cells were grown in DMEM, containing 10% (v/v) heat inactivated foetal calf serum, 100 U/mL penicillin and […] streptomycin, in a humidified atmosphere at 37° C. with 5% CO2.
# (§4) The ex vivo proliferative capabilities of isolated BMSC or cultured cells were analyzed using the MTS proliferation assay. […] After 24 hours in culture medium containing LMH001 (0-10 μM), proliferation was assessed using the MTS (CellTiter 96 AQ; Promega, Madison, USA) assay according to the manufacturer's protocol. The absorbance at 490 nm was read using an ELISA plate reader (Perkin elmer), and the proliferation index calculated relative to the controls. The mean of 3 blank readings was subtracted from each corrected value.
# HL-60 cells = test: normal cell proliferation, MTS assay, HL-60; assay type: cell-based, human; details: HL-60, LMH001 up to 10 μM, 6, 12 and 24 h of culture
# Description: as §3
# HL-60 is a human promyelocytic leukaemia cell line. The HL60 cells were grown in RPMI 1640 medium; containing 10% (v/v) heat inactivated foetal calf serum, 100 U/mL penicillin and […] streptomycin, in a humidified atmosphere at 37° C. with 5% CO2. HL60 cells were differentiated to the human neutrophils by culturing the cells in the culture medium in the presence of 1.25% v/v DMSO for 6 days before being used for the experiments.
# as §4
compound,measurement,setting,value
"O=C(OCc1cccc(O)c1O)c1ccc(O)c(CO)c1 [LMH001, (2,3,-dihydroxyphenyl)methyl 4-hydroxy-3-(hydroxymethyl)benzoate]",AngII-induced endothelial O2.- production,[1]; Angiotensin II 200 nM,completely inhibited
same,basal cell O2.- production,[1]; medium alone,no effect
same,cell O2.- production under normal glucose levels,[2]; glucose 5 mM,no significant effect
same,high glucose level-induced O2.- production,[2]; glucose 40 mM,inhibited completely
same,normal cell proliferation under physiological condition,HepG2 cells,no significant effect
same,normal cell proliferation under physiological condition,HL-60 cells,no significant effect
